According to patent US5612352A, “Heterocyclic compounds” (Zeneca Limited, priority 1992, dated 1997):

How the values were obtained:
Squalene Synthase = target: T1, Squalene Synthase (Rattus norvegicus, UniProt Q02769); assay: Inhibition of Squalene Synthase (formation of squalene from tritiated farnesyl pyrophosphate, rat liver microsomal protein); type: biochemical; conditions: rat liver microsomes, 20 μM 1-[3H]-farnesyl pyrophosphate, 37° C., 15 minutes; read-out: IC50 (concentration which results in a 50% inhibition of squalene production)
T1 construct: from tissue; host or cells: rat liver microsomes
T1 sequence (Q02769 1-416): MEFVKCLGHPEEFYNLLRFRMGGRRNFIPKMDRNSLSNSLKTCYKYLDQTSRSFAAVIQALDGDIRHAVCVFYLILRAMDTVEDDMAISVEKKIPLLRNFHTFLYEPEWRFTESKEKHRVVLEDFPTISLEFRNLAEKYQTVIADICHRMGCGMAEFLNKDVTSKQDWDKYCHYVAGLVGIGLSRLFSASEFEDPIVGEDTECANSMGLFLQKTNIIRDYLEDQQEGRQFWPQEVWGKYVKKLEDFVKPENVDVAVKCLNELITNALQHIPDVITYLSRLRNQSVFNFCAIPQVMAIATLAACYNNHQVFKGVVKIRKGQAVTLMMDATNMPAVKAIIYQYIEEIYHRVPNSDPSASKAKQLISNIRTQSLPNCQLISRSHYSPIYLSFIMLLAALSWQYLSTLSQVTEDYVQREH
Method: (a) Inhibition of Squalene Synthase
In this test, the ability of a compound to prevent the . formation of squalene from a radioactive substrate (tritiated farnesyl pyrophosphate) is assessed.
The test compound is incubated at a concentration of 25 micromolar in 200 μl of a buffered solution containing potassium phosphate (50 mM), MgCl2 (4.95 mM), KF (9.9 mM), NADPH (0.9 mM) and rat liver microsomal protein (20 μg). Rat liver microsomes are prepared by the method described in published European Patent Application No. 324,421 and stored in liquid nitrogen prior to assay. Assay vials are kept at 37° C. throughout the incubation.
The reaction is started with the addition of the substrate (1-[^3 H]-farnesyl pyrophosphate), final concentration 20 μM, and stopped after 15 minutes reaction time with the addition of 50 μl of 4% KOH. The reaction products are separated from unreacted substrate after application to a C-18 octadecyl 1ccBond column (Analytichem Int product No. 617101). An aqueous fraction is eluted with 250 μl of 0.1M KOH. Squalene is then eluted with 1.0 ml 10% ethylacetate in hexane and radioactivity determined. The difference in radioactivity in the presence and absence of the test compound is used to determine the level of inhibition. […] The IC50 can then be determined from a plot of percentage inhibition against concentration of test compound.

[1] = test system: de novo hepatic cholesterol synthesis; assay: Acute Rat Cholesterol Synthesis Assay (de novo hepatic cholesterol synthesis from exogenously administered 14C-acetate); type: in vivo; conditions: female rats, oral gavage, ip or iv dosing (route not given), [2-14C]-acetate ip 1 hour after dose, blood after a further hour
Method: (b) Acute Rat Cholesterol Synthesis Assay
This is an acute in vivo test in the rat to measure de novo hepatic cholesterol synthesis from exogenously administered ^14 C-acetate.
Female rats (35-55 g) are housed in reverse lighting conditions (red light from 0200h-1400h) for a period of about 2 weeks prior to test. Animals are allowed free access to chow and drinking water throughout this period. At test, animals should weigh 125-150 g.
Test compounds may be administered by oral gavage, dissolved or suspended in 0.5% polysorbate, or by ip or iv dosing. Control animals receive vehicle alone. After 1 hour the rats are injected ip with 25 μCi [2-^14 C]-acetate (NEN DUPONT. specific activity, 45-60 mCi/mmol NEC-085H, or AMERSHAM specific activity, 50-60 mCi/mmol CFA 14) in a volume of 0.25 ml saline (100 μCi/ml). After a further hour, rats are terminally anaesthetised with halothane and a blood sample obtained from the abdominal vena cava.
1 ml of plasma is lyophilised and then saponified in 2 ml ethanolic KOH (1 part 33% KOH, 9 parts ethanol) at 75° C. for 2 hours. After addition of an equal quantity of water, non-saponifiable lipids are extracted with two 5 ml volumes of hexane. The hexane extracts are evaporated to dryness and the residues dissolved in ethanol to determine cholesterol specific radioactivity. ED50 values can be determined in the standard way.

OC1C2CCN(CC2)C1Cc1ccc(-c2ccccc2)cc1 (stereo not drawn) [Example 2, 2-(4-biphenylmethyl)-3-quinuclidinol] gave an IC50 (Squalene Synthase) of 120 nM.
For c1ccc(-c2ccc(SC3CN4CCC3CC4)cc2)cc1 (stereo not drawn) [Example 10, 3-(4-biphenylthio)quinuclidine], the ED50 [1] was 46 mg/kg and the IC50 (Squalene Synthase) was 21 nM.
